These results are taken from paper PMC12078333, “Pharmacokinetic evaluation and bioavailability of KPT-335 (Verdinexor) in cats” (Frontiers in Veterinary Science, 2025).

Data set [1] in a line: Adverse reaction assessment in test cats (body weight, behavior, coat gloss). Particulars: all tested cats, i.v. 1 mg/kg BW and p.o. 0.2–2 mg/kg BW, single dose. The class given is in vivo. As to the method:
In this study, a parallel trial design was employed, 42 adult domestic cats (21 males and 21 females), aged 1 to 2 years and weighing 2.5 ± 0.25 kg. Cats were grouped by random number, with half male and female in each group, and all cats were determined to be systemically healthy during an initial screening visit 1 week prior to the experiment. They were acclimatized to the laboratory environment for 7 days before the study commenced. During this period, they were kept in solitary cages with free access to water. Cats in the fasting group were deprived of food for 12 h prior to and 2 h following drug administration, while those in the feeding group were fed twice a day. Food and water sources were consistent throughout the trail. During and at the end of the experiment, we systematically assessed the adverse reactions by recording parameters such as body weight, behavior, and coat gloss in all test cats both before and after the trial. These observations were conducted to evaluate whether any adverse reactions occurred. All procedures were reviewed and approved by the Institutional Animal Care and Use Committee of China Agricultural University (11305-23-E-002).

Data set [2] in a line: Solubility of KPT-335 (pH dependence, unpublished data). The class given is physicochemical.

With `O=C(/C=C\n1cnc(-c2cc(C(F)(F)F)cc(C(F)(F)F)c2)n1)NNc1ccccn1` [KPT-335], the adverse reactions entry in data set [1] is listed as “no adverse reactions”. Besides, the aqueous solubility result in data set [2] is “low aqueous solubility”. In addition, the “lower solubility at pH 3.8 versus pH 1.5” value in data set [2] (unpublished data) turned out to be 50 fold.
